Assay results reported in ChEMBL document CHEMBL1146086, “Design, synthesis, and evaluation of near infrared fluorescent multimeric RGD peptides for targeting tumors” (J Med Chem, 2006).
Numbered stars: 1 amine (or outer) side, 2 acyl side, 3 side chain; on linkers, the order of the positions; unused ones are H or OH. Bridge positions count the residues as written; N and C are the ends. Peptide text beside a SMILES is read from it. I, II: the chains in the order shown. * marks the point of attachment. X2 = CC1(C)C(/C=C/C=C/C=C/C=C2/N(CCC(=O)[*:1])c3ccc4ccccc4c3C2(C)C)=[N+](CCC(=O)[*:2])c2ccc3ccccc3c21; X1 = CC1(C)C(/C=C/C=C/C=C/C=C2/N(CCC(=O)[*:1])c3ccc4ccccc4c3C2(C)C)=[N+](CC(=O)[*:2])c2ccc3ccccc3c21; Cypate = CC1(C)C(/C=C/C=C/C=C/C=C2/N(CCC(=O)*)c3ccc4ccccc4c3C2(C)C)=[N+](CCC(=O)O)c2ccc3ccccc3c21; X3 = CC1(C)C(/C=C/C=C/C=C/C=C2/N(CCC(=O)O)c3ccc4ccccc4c3C2(C)C)=[N+](CC(=O)*)c2ccc3ccccc3c21

The compounds below were run against Integrin alpha-V/beta-3 (Homo sapiens, UniProt P05106+P06756) (assay: Displacement of [125I]echistatin from AlphaV-beta-3 integrin receptor).
Integrin alpha-V/beta-3, sequence (P05106 27-788 limits assumed): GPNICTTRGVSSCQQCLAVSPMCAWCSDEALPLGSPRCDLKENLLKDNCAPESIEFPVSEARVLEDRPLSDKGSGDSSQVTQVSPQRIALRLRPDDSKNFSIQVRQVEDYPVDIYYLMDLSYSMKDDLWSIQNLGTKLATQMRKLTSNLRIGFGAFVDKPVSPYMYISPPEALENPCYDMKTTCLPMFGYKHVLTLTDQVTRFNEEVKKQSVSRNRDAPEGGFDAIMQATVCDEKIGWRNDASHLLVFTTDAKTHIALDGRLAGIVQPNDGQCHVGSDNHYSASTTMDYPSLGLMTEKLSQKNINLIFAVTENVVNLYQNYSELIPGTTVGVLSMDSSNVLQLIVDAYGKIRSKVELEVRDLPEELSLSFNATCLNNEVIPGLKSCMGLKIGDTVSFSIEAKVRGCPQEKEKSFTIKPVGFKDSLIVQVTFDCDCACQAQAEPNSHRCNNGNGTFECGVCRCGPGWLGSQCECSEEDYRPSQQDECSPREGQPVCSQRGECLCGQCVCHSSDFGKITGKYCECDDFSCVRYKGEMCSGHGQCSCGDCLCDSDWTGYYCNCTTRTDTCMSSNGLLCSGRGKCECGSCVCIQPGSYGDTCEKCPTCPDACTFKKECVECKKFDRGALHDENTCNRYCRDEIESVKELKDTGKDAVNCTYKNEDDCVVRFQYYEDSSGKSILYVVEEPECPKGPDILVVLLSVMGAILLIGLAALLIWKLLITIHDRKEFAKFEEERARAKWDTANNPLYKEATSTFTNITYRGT
Integrin alpha-V/beta-3, sequence (P06756 31-889 limits assumed): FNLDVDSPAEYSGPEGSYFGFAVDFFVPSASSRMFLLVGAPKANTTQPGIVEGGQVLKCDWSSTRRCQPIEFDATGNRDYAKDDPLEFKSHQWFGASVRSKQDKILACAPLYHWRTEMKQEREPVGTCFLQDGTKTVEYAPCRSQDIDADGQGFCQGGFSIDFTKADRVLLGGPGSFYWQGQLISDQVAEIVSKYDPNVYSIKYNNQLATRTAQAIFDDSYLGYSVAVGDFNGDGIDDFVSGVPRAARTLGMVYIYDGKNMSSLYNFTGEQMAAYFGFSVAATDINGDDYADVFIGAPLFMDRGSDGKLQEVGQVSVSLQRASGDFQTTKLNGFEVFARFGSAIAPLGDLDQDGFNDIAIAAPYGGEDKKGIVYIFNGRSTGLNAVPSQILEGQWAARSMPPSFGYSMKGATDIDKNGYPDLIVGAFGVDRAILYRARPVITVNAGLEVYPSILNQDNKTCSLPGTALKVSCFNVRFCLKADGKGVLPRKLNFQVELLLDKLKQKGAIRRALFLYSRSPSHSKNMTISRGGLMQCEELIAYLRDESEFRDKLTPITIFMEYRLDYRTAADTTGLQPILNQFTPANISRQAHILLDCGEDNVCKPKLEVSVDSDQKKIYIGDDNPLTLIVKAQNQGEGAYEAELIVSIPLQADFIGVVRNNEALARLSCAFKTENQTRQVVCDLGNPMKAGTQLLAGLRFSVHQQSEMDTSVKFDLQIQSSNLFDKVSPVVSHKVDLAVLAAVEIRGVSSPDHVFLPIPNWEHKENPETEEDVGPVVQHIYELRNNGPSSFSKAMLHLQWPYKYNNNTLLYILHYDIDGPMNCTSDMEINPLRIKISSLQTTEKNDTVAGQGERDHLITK
Integrin alpha-V/beta-3, sequence (P06756 891-1048 limits assumed): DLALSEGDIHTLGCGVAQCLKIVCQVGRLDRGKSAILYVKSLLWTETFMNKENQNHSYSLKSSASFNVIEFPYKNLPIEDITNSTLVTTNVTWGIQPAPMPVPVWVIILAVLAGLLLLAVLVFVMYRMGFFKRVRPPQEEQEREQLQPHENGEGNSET
Type: protein-complex assay

SMILES | IC50
CC1(C)C(/C=C/C=C/C=C/C=C2/N(CCC(=O)N[C@@H](CCCN=C(N)N)C(=O)NCC(=O)N[C@@H](CC(=O)O)C(=O)N[C@@H](CCCN=C(N)N)C(=O)NCC(=O)N[C@@H](CC(=O)O)C(N)=O)c3ccc4ccccc4c3C2(C)C)=[N+](CC(=O)N[C@@H](CCCN=C(N)N)C(=O)NCC(=O)N[C@@H](CC(=O)O)C(=O)N[C@@H](CCCN=C(N)N)C(=O)NCC(=O)N[C@@H](CC(=O)O)C(N)=O)c2ccc3ccccc3c21 | 104 nM
CC1(C)C(/C=C/C=C/C=C/C=C2/N(CCC(=O)O)c3ccc4ccccc4c3C2(C)C)=[N+](CC(=O)N[C@@H](CCCN=C(N)N)C(=O)NCC(=O)N[C@@H](CC(=O)O)C(=O)N[C@@H](CCCN=C(N)N)C(=O)NCC(=O)N[C@@H](CC(=O)O)C(N)=O)c2ccc3ccccc3c21 | 730 nM
CC1(C)C(/C=C/C=C/C=C/C=C2/N(CCC(=O)N[C@@H](CCCN=C(N)N)C(=O)NCC(=O)N[C@@H](CC(=O)O)C(=O)N[C@@H](CCCN=C(N)N)C(=O)NCC(=O)N[C@@H](CC(=O)O)C(=O)N[C@@H](CCCN=C(N)N)C(=O)NCC(=O)N[C@@H](CC(=O)O)C(=O)N[C@@H](CCCN=C(N)N)C(=O)NCC(=O)N[C@@H](CC(=O)O)C(N)=O)c3ccc4ccccc4c3C2(C)C)=[N+](CCC(=O)N[C@@H](CCCN=C(N)N)C(=O)NCC(=O)N[C@@H](CC(=O)O)C(=O)N[C@@H](CCCN=C(N)N)C(=O)NCC(=O)N[C@@H](CC(=O)O)C(=O)N[C@@H](CCCN=C(N)N)C(=O)NCC(=O)N[C@@H](CC(=O)O)C(=O)N[C@@H](CCCN=C(N)N)C(=O)NCC(=O)N[C@@H](CC(=O)O)C(N)=O)c2ccc3ccccc3c21 (I: RGDRGDRGDRGD-NH2 / II: RGDRGDRGDRGD-NH2; linker I:N-II:N via X2) | 79.6 nM
CC1(C)C(/C=C/C=C/C=C/C=C2/N(CCC(=O)O)c3ccc4ccccc4c3C2(C)C)=[N+](CC(=O)N[C@@H](CCCN=C(N)N)C(=O)NCC(=O)N[C@@H](CC(=O)O)C(=O)N[C@@H](CCCN=C(N)N)C(=O)NCC(=O)N[C@@H](CC(=O)O)C(=O)N[C@@H](CCCN=C(N)N)C(=O)NCC(=O)N[C@@H](CC(=O)O)C(N)=O)c2ccc3ccccc3c21 (X3-RGDRGDRGD-NH2) | 481 nM

Continued, values first:

IC50 | SMILES
63.9 nM | CC1(C)C(/C=C/C=C/C=C/C=C2/N(CCC(=O)NCCCC[C@@H]3NC(=O)[C@@H](Cc4ccccc4)NC(=O)[C@H](CC(=O)O)NC(=O)CNC(=O)[C@H](CCCNC(=N)N)NC3=O)c3ccc4ccccc4c3C2(C)C)=[N+](CCC(=O)O)c2ccc3ccccc3c21
259 nM | CC1(C)C(/C=C/C=C/C=C/C=C2/N(CCC(=O)N[C@@H](CCCN=C(N)N)C(=O)NCC(=O)N[C@@H](CC(=O)O)C(=O)N[C@@H](CCCN=C(N)N)C(=O)NCC(=O)N[C@@H](CC(=O)O)C(=O)N[C@@H](CCCN=C(N)N)C(=O)NCC(=O)N[C@@H](CC(=O)O)C(=O)N[C@@H](CCCN=C(N)N)C(=O)NCC(=O)N[C@@H](CC(=O)O)C(N)=O)c3ccc4ccccc4c3C2(C)C)=[N+](CCC(=O)O)c2ccc3ccccc3c21 (Cypate-RGDRGDRGDRGD-NH2)
132 nM | CC1(C)C(/C=C/C=C/C=C/C=C2/N(CCC(=O)N[C@@H](CCCN=C(N)N)C(=O)NCC(=O)N[C@@H](CC(=O)O)C(=O)N[C@@H](CCCN=C(N)N)C(=O)NCC(=O)N[C@@H](CC(=O)O)C(=O)N[C@@H](CCCN=C(N)N)C(=O)NCC(=O)N[C@@H](CC(=O)O)C(N)=O)c3ccc4ccccc4c3C2(C)C)=[N+](CC(=O)N[C@@H](CCCN=C(N)N)C(=O)NCC(=O)N[C@@H](CC(=O)O)C(=O)N[C@@H](CCCN=C(N)N)C(=O)NCC(=O)N[C@@H](CC(=O)O)C(=O)N[C@@H](CCCN=C(N)N)C(=O)NCC(=O)N[C@@H](CC(=O)O)C(N)=O)c2ccc3ccccc3c21 (I: RGDRGDRGD-NH2 / II: RGDRGDRGD-NH2; linker I:N-II:N via X1)
